The compounds below were run against T1, rat B1R (bradykinin receptor 1) (Rattus norvegicus, UniProt P97583) (assay: FLIPR Ca2+ assay (Fluo-4) on CHO K1 cells stably transfected with the B1R gene of the rat (rB1R cells): % inhibition at 10 μM / IC50, agonist Des-Arg9-bradykinin). Details: CHO-K1, rat B1R.
T1 construct: expressed in transfected cells; host or cells: CHO K1 cells
T1 sequence (P97583 1-337): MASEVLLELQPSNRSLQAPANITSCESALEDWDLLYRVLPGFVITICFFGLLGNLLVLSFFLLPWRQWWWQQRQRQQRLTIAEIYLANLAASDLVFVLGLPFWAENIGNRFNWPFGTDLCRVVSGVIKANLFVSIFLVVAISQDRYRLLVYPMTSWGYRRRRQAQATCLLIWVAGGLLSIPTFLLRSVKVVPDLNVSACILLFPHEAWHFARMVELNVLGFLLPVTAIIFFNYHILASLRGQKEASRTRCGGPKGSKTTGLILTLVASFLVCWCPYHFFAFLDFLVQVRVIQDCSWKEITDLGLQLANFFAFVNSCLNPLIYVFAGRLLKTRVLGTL
Format: cell-based
Summary of the method: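 Cells were Fluo-4-loaded, then test compound (10 μM, or a concentration series for IC50) was preincubated 10–20 min before agonist challenge at EC80: Lys-Des-Arg9-bradykinin for hB1R, Des-Arg9-bradykinin for rB1R. Peak Ca2+ fluorescence (ex 488/em 540 nm) gave % inhibition versus maximal achievable inhibition.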

Structure (SMILES) | inhibition at 10 µM
CN(C(=O)c1ccc(F)cc1C(F)(F)F)C1CCc2ccc(C(=O)N3CCC4(CC3)CCN(c3ccncc3)CC4)cc21 (stereo not drawn) [IND_CC-380, 4-Fluoro-N-methyl-N-[6-(9-pyridin-4-yl-3,9-diazaspiro[5.5]undecane-3-carbonyl)-2,3-dihydro-1H-inden-1-yl]-2-(trifluoromethyl)-benzamide] | 103%
O=C(NC1CCc2ccc(C(=O)N3CCC4(CCN(c5ccncc5)CC4)C3)cc21)c1ccc(F)cc1C(F)(F)F (stereo not drawn) [IND_CC-382, 4-Fluoro-N-[6-(8-pyridin-4-yl-2,8-diazaspiro[4.5]decane-2-carbonyl)-2,3-dihydro-1H-inden-1-yl]-2-(trifluoromethyl)-benzamide] | 103%
O=C(NC1CCc2ccc(C(=O)N3CCC4(CC3)CCN(c3ccncc3)C4)cc21)c1c(F)cccc1F (stereo not drawn) [IND_CC-385, 2,6-Difluoro-N-[6-(2-pyridin-4-yl-2,8-diazaspiro[4.5]decane-8-carbonyl)-2,3-dihydro-1H-inden-1-yl]-benzamide] | 104%
CN(C1CCc2ccc(C(=O)N3CCC4(CC3)CCN(c3ccncc3)CC4)cc21)S(=O)(=O)Cc1cccc(C(F)(F)F)c1 (stereo not drawn) [IND_CC-390, N-Methyl-N-[6-(9-pyridin-4-yl-3,9-diazaspiro[5.5]undecane-3-carbonyl)-2,3-dihydro-1H-inden-1-yl]-1-[3-(trifluoromethyl)phenyl]-methanesulfonic acid amide] | 100%
O=C(NC1CCc2ccc(C(=O)N3CCC4(CC3)CCN(c3ccncc3)CC4)cc21)C1CCCC1 (stereo not drawn) [IND_CC-391, N-[6-(9-Pyridin-4-yl-3,9-diazaspiro[5.5]undecane-3-carbonyl)-2,3-dihydro-1H-inden-1-yl]-cyclopentanecarboxylic acid amide] | 103%

Continued, values first:

inhibition at 10 µM | Structure (SMILES)
104% | O=C(NC1CCc2ccc(C(=O)N3CCC4(CC3)CCN(c3ccncc3)C4)cc21)c1ccc(F)cc1C(F)(F)F (stereo not drawn) [IND_CC-381, 4-Fluoro-N-[6-(2-pyridin-4-yl-2,8-diazaspiro[4.5]decane-8-carbonyl)-2,3-dihydro-1H-inden-1-yl]-2-(trifluoromethyl)-benzamide]
102% | O=C(NC1CCc2ccc(C(=O)N3CCC4(CC3)CCN(c3ccncc3)CC4)cc21)c1c(F)cccc1F (stereo not drawn) [IND_CC-383, 2,6-Difluoro-N-[6-(9-pyridin-4-yl-3,9-diazaspiro[5.5]undecane-3-carbonyl)-2,3-dihydro-1H-inden-1-yl]-benzamide]
104% | CN(C(=O)c1c(F)cccc1F)C1CCc2ccc(C(=O)N3CCC4(CC3)CCN(c3ccncc3)CC4)cc21 (stereo not drawn) [IND_CC-384, 2,6-Difluoro-N-methyl-N-[6-(9-pyridin-4-yl-3,9-diazaspiro[5.5]undecane-3-carbonyl)-2,3-dihydro-1H-inden-1-yl]-benzamide]
104% | O=C(NC1CCc2ccc(C(=O)N3CCC4(CCN(c5ccncc5)CC4)C3)cc21)c1c(F)cccc1F (stereo not drawn) [IND_CC-386, 2,6-Difluoro-N-[6-(8-pyridin-4-yl-2,8-diazaspiro[4.5]decane-2-carbonyl)-2,3-dihydro-1H-inden-1-yl]-benzamide]
104% | Cc1cccc(C(=O)N(C)C2CCc3ccc(C(=O)N4CCC5(CC4)CCN(c4ccncc4)CC5)cc32)c1C (stereo not drawn) [IND_CC-387, N,2,3-Trimethyl-N-[6-(9-pyridin-4-yl-3,9-diazaspiro[5.5]undecane-3-carbonyl)-2,3-dihydro-1H-inden-1-yl]-benzamide]
101% | Cc1cccc(C(=O)NC2CCc3ccc(C(=O)N4CCC5(CC4)CCN(c4ccncc4)C5)cc32)c1C (stereo not drawn) [IND_CC-388, 2,3-Dimethyl-N-[6-(2-pyridin-4-yl-2,8-diazaspiro[4.5]decane-8-carbonyl)-2,3-dihydro-1H-inden-1-yl]-benzamide]
103% | Cc1cccc(C(=O)NC2CCc3ccc(C(=O)N4CCC5(CCN(c6ccncc6)CC5)C4)cc32)c1C (stereo not drawn) [IND_CC-389, 2,3-Dimethyl-N-[6-(8-pyridin-4-yl-2,8-diazaspiro[4.5]decane-2-carbonyl)-2,3-dihydro-1H-inden-1-yl]-benzamide]
